In US4522803A (priority 1983, dated 1985):
Like-named read-outs stand apart in the source and are kept apart here.

Experiments:
[1] = tested on: B. canis; design: species or system B. canis ATCC 23365; conditions: in vivo
[2] = tested on: B. canis; type: cell-based; conditions: suspension culture
[3] = tested on: B. canis; type: cell-based
[4] = tested on: B. abortus; type: cell-based; conditions: mean ± SD of 12 replicates; streptomycin 1 mg/ml, 24 hours
[5] = tested on: B. canis; design: species or system B. canis ATCC 23365; conditions: in vivo; remark: listed apart in the source
[6] = tested on: B. canis; design: species or system B. canis ATCC 23365; conditions: in vivo, ip, 10 mg/kg
[7] = tested on: B. canis; design: species or system B. canis ATCC 23365; conditions: in vivo, ip, 10 mg/kg; remark: listed apart in the source
[8] = tested on: B. abortus; design: species or system B. abortus ATCC 23451; conditions: in vivo, ip, 10 mg/kg
[9] = tested on: M. bovis; type: in vivo
[10] = tested on: B. canis antigen; conditions: in vivo
[11] = Retention and sustained release of gentamycin after topical application in eyes of mice

With CN[C@@H]1[C@H](O[C@H]2[C@H](O[C@H]3[C@H](O)[C@@H](O)[C@H](NC(=N)N)[C@@H](O)[C@@H]3NC(=N)N)O[C@@H](C)[C@]2(O)CO)O[C@@H](CO)[C@H](O)[C@H]1O [Dihydrostreptomycin] the “Colony-Forming Units B. Canis Per Spleen” value [1] was 1.13 ± 0.30 × 10^5 and the “Killing of B. canis in vitro” value [2] was “kill B. canis in vitro”.
In the case of [H]/N=C(/N)N[C@H]1[C@H](O)[C@@H](O)[C@H](O[C@@H]2O[C@@H](C)[C@](O)(C=O)[C@H]2O[C@@H]2O[C@@H](CO)[C@H](O)[C@@H](O)[C@@H]2NC)[C@@H](N/C(N)=N\[H])[C@@H]1O [Streptomycin], the “Colony-forming units of intracellular B. canis” value [3] is reported as 3.11 + 0.40 × 10^3 CFU, the “Colony-forming units of intracellular B. abortus” value [4] is reported as 3.3 ± 0.25 × 10^4 CFU and the “Surviving B. canis in spleens” value [5] is reported as “very little reduction in surviving B. canis in spleens was observed”. The “Surviving B. canis per organ” value [6] was “viable B. canis organisms could be isolated in all tissues sampled”, the “Colony-Forming Units B. Canis Per Spleen” value [1] was 1.01 ± 0.17 × 10^5 and the “Killing of B. canis in vitro” value [2] was “kill B. canis in vitro”. For the same molecule, the “Blood and vaginal culture outcome” value [7] was “remained culture positive for blood and vaginal cultures during post-treatment periods”, the “Surviving B. abortus in spleen” value [8] was “viable B. abortus bacteria were be identified” and the “M. Bovis cultures positive” value ([9]; UV-radiated, day 3 post-treatment) was 3/5. The “M. Bovis cultures positive” value ([9]; UV-radiated, day 5 post-treatment) was 4/5, the “Number of mice with corneal opacity score 0” value ([9]; UV-radiated, post-treatment) was 14 and the “Number of mice with corneal opacity score 1 (loss of normal luster)” value (“Number of mice … (loss of normal luster)” for short) ([9]; UV-radiated, post-treatment) was 3. The “Number of mice with corneal opacity score 2 (small foci of opacity)” value (shortened to “Number of mice … (small foci of opacity)”) ([9]; UV-radiated, post-treatment) was 2, the “Number of mice with corneal opacity score 3 (partial opacity)” value (“Number of mice … (partial opacity)” below) ([9]; UV-radiated, post-treatment) was 1 and the “Number of mice with corneal opacity score 4 (total opacity)” value (“Number of mice … (total opacity)” below) ([9]; UV-radiated, post-treatment) was 0. For the same molecule, the “Number of mice with corneal opacity score 0” value ([9]; UV-radiated, pre-treatment) was 0, the “Number of mice … (loss of normal luster)” value ([9]; UV-radiated, pre-treatment) was 4 and the “Number of mice … (small foci of opacity)” value ([9]; UV-radiated, pre-treatment) was 9. The “Number of mice … (partial opacity)” value ([9]; UV-radiated, pre-treatment) was 7, the “Number of mice … (total opacity)” value ([9]; UV-radiated, pre-treatment) was 0 and the “M. Bovis cultures positive” value ([9]; non-radiated, day 3 post-treatment) was 2/5. For the same molecule, the “M. Bovis cultures positive” value ([9]; non-radiated, day 5 post-treatment) was 2/5, the “Number of mice with corneal opacity score 0” value ([9]; non-radiated, post-treatment) was 18 and the “Number of mice … (loss of normal luster)” value ([9]; non-radiated, post-treatment) was 2. For the same molecule, the “Number of mice … (small foci of opacity)” value ([9]; non-radiated, post-treatment) was 0, the “Number of mice … (partial opacity)” value ([9]; non-radiated, post-treatment) was 0 and the “Number of mice … (total opacity)” value ([9]; non-radiated, post-treatment) was 0. For the same molecule, the “Number of mice with corneal opacity score 0” value ([9]; non-radiated, pre-treatment) was 18, the “Number of mice … (loss of normal luster)” value ([9]; non-radiated, pre-treatment) was 1 and the “Number of mice … (small foci of opacity)” value ([9]; non-radiated, pre-treatment) was 1. For the same molecule, the “Number of mice … (partial opacity)” value ([9]; non-radiated, pre-treatment) was 0, the “Number of mice … (total opacity)” value ([9]; non-radiated, pre-treatment) was 0 and the “M (2-mercaptoethanol tube agglutination test), reciprocal of serum titer” value [10] was 0 × 10^2. The “R (rapid slide agglutination test), reciprocal of serum titer” value [10] was 0 × 10^2 and the “Serum antibody against B. canis” value ([10]; ip, 10 mg/kg) was “developed detectable serum titers against B. canis antigens by day 21 post-inoculation”.
In the case of Gentamycin, the “Killing of B. canis in vitro” value [2] is reported as “kill B. canis in vitro”, the “Gentamycin retained in eyelid tissue” value ([11]; 4 hours, topical) is reported as “less than 5%” and the Gentamycin sulfate cleared ([11]; within a 4 hour period) is reported as 95%.
